Where “and” joins values, the source holds several entries; their conditions need not be identical. Equal entries are not always repeated. Entries after “also recorded” stand apart in the source; their conditions may differ. Where two headings read alike, the source gives them in different places.
Experiments:
[1] = biological target: T1, GABAA-receptors (α1-GFP + β2 + γ2Long) expressed in CHO cells (Homo sapiens, UniProt P14867+P47870); test: Whole-cell patch-clamp recordings with fast perfusion on CHO cells transiently expressing GABAA-receptors; type: cell-based; conditions: for changes in the current: application of 10 mM
T1 construct: expressed in transfected cells; host or cells: CHO-K1 (ATCC), transient transfection with Lipofectamine 2000
T1 sequence (P14867 28-456): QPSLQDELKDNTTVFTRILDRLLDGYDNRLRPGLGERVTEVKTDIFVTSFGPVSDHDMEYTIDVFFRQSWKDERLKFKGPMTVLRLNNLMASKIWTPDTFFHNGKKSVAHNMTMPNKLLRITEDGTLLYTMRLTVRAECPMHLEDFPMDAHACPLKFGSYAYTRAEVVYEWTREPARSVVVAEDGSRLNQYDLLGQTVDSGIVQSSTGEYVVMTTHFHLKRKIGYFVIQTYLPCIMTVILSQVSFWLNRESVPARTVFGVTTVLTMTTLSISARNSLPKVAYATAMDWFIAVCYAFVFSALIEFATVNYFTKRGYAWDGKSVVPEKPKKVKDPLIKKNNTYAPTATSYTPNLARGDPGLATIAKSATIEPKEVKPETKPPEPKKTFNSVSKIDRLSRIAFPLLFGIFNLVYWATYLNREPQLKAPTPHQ
T1 sequence (P47870 25-512 limits assumed): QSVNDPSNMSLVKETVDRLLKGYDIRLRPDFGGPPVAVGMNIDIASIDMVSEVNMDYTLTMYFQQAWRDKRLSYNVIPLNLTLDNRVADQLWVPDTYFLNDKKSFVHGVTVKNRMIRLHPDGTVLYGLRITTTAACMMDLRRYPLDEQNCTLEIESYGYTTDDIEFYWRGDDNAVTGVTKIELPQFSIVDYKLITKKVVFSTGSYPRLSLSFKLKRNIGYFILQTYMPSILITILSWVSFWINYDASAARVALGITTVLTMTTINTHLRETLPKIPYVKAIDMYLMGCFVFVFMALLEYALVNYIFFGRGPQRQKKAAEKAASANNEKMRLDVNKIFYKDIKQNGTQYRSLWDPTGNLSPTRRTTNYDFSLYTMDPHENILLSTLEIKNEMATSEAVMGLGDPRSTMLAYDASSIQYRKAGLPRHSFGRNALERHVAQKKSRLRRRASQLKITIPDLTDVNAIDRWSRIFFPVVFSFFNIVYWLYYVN
T1 sequence (P18507 40-475 partner): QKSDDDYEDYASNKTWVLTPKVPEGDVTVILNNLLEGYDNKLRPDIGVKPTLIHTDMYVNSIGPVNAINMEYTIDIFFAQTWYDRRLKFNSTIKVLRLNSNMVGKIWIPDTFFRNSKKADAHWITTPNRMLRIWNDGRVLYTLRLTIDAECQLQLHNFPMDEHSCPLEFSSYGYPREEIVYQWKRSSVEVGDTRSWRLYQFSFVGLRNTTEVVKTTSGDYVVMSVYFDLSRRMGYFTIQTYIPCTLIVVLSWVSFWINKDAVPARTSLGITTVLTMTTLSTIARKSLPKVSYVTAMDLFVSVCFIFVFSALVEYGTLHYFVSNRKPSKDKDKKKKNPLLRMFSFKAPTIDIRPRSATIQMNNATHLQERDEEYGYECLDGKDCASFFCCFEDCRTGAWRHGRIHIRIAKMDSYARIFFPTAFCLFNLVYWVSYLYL
Experimental: (§1) The investigations in this study were performed by using a standard ^36Cl^−-flux assay in mouse brain synaptoneurosomes. […] Moreover, ^36Cl^−-flux assays were carried out by using a 15 s incubation time. […] The activity of synthesized compounds was tested by using CHO cells transiently expressing GABAA-receptors in the configuration (α1-GFP + β2 + γ2Long). To analyze the functional properties of the compounds, we performed monitoring of ionic currents using whole-cell patch-clamp techniques. […] Then we applied different concentrations of the studied compounds and estimated the minimal concentration that induced currents and, if possible, their EC50.
Cell culture and transient transfection
Chinese Hamster Ovary (CHO-K1) cells were obtained from the American Type Culture Collection (ATCC, Molsheim, France) and maintained as previously described. One day before the transfection, cells were plated on the coverslips (12–14 mm in diameter), which were placed inside 35 mm cell culture dishes with 2 mL of medium. CHO cells were transfected with a total 3 µg cDNA of α1-GFP + β2 + γ2Long (ratio 1:1:1) using the Lipofectamine 2000 transfection protocol (Life Technology, USA). Three hours after the initial exposure of the cells to the cDNAs, a fresh […] solution replaced the old one.
Electrophysiological recordings were performed from fluorescent cells 48–72 hours after […]
Electrophysiological recordings
Whole-cell recordings were conducted on CHO-K1 cells at room temperature (20–25 °C) using an EPC-9 amplifier (HEKA Elektronik, Germany). Cells were continuously superfused with external solution containing (mM): NaCl 140, CaCl2 2, KCl 2.8, MgCl2 1, HEPES 20, glucose 10; pH 7.3; 320–330 mOsm. The patch pipette solution contained (mM): CsCl 140, MgCl2 2, MgATP 2, NaGTP 0.4, HEPES/CsOH 10, BAPTA/KOH 20; pH 7.3; 290 mOsm.
Pipettes were pulled from borosilicate glass capillaries (Harvard Apparatus Ltd, USA) and had resistances of 5–8 MΩ.
For rapid replacement of solutions, a system of two parallel rectangular tubes, 100 µm in diameter, located at a distance of 40–50 µm from the tested cell, was used. The movement of tubes was controlled by a computer-driven fast exchange system (SF 77A Perfusion Fast-Step, Warner, USA). As measured by open tip electrode controls (1/10 NaCl), in this system a 20–80% solution exchange time was within 2–3 ms. Cells with a low input resistance (<150 MΩ) were excluded from analysis.
For quantitative estimations of agonist action, dose-response relationships were fitted by the […]
I = Imax / (1 + (EC50/ [C])n) where I is the current amplitude induced by the agonist at concentration [C], Imax is the maximum response of the cell, n is the Hill coefficient and EC50 is the concentration for which a half-maximum response is induced. Concentration-response relationships were constructed using at least four points. […]

GABAA-receptors [2] = system: GABAA-receptors; set-up: method as in PMID 12113824; conditions: cited from earlier work; for agonist character on GABAA-channels: chloride-flux assays on synaptoneurosomes
GABAA-receptors [3] = test: Standard 36Cl−-flux assay in mouse brain synaptoneurosomes (Carlier et al.); type: cell-based; conditions: ratio of the EC50 values of ref 13
Experimental: as §1

[4] = whole-cell currents, mean ± error over x tested cells, read-out: EC50, mean

Row | SMILES | melting point | agonist character on GABAA-channels (GABAA-receptors [2]) | EC50 [1, 4] | also measured
1 | Cl.Cl.NCCCC(=O)NCc1ccc(CN)cc1 | 251 to 253 °C |  |  | 
2 | NCCCC(=O)NCCCCNC(=O)CCCN [4a] |  | partial, full or superagonists |  | changes in the current ([1]; x = 4): 0 pA
3 | NCCCC(=O)NCCCCCCNC(=O)CCCN [4b] |  | superagonist; also recorded: partial, full or superagonists |  | EC50 fold higher than for GABA (GABAA-receptors [3]): more than 30 fold; changes in the current ([1]; x = 4): 0 pA; EC50 (GABAA-receptors [2]; 36Cl−-flux, mouse brain synaptoneurosomes, 15 s incubation, read-out: EC50 (Cl− uptake)): 0.733 mM; maximum Cl− uptake higher than that achieved by GABA (GABAA-receptors [2]; 36Cl−-flux, mouse brain synaptoneurosomes): about 50%
4 | NCCCC(=O)NCCCCCCCCNC(=O)CCCN [4c] |  | partial, full or superagonists |  | induction of whole-cell currents ([1]; concentration of 15 mM): not able to induce currents
5 | Cl.Cl.NCCCC(=O)NCCN [7a] | 144 to 146 °C | partial, full or superagonists |  | current amplitude ([1]; at 2.6 mM, x = 4): 10–30 pA
6 | Cl.Cl.NCCCNC(=O)CCCN [7b] | 140 to 142 °C |  | 1.08 ± 0.14 mM | currents induced compared with GABA ([1]; at concentrations of 10 mM): comparable to those for GABA 30–100 µM
7 | NCCCCNC(=O)CCCN [7c] |  | partial, full or superagonists | 1.75 ± 0.33 mM | 
8 | Cl.Cl.NCCCCCCNC(=O)CCCN [7d] | 147 to 150 °C |  | 5.25 ± 0.56 mM | activation threshold [1]: about 100 µM; EC50 ([1]; example concentration-response curve (Figures 2B, 5C), read-out: EC50 from the concentration dependence shown in the figure): ~5 mM and 5.1 mM
9 | Cl.Cl.NCCCCCCCCNC(=O)CCCN [7e] | 136 to 138 °C |  |  | current amplitude ([1]; at 5 mM, x = 3): 10–20 pA

Source: article PMC3596083 (Beilstein Journal of Organic Chemistry, 2013)
